Literature values, collected in patent publication US11278709B1, “Drug delivery device and methods for using same” (Pocket Naloxone Corp., priority 2021, dated 2022).

Details: 4 mg dose via a nasal spray

SMILES: C=CCN1CC[C@]23c4c5ccc(O)c4O[C@H]2C(=O)CC[C@@]3(O)[C@H]1C5 [naloxone]
- AUClast: 7.95 ng·h/mL
- Cmax: 4.83 ng/mL
